Measured values from publication PMC8406298, “Discovery of Fungus-Specific Targets and Inhibitors Using Chemical Phenotyping of Pathogenic Spore Germination” (mBio, 2021).

What was measured:
[1] = system: normal human dermal fibroblasts (NHDF) cells; assay: Fibroblast cytotoxicity (CellTiter-Glo); assay type: cell-based; details: 10 µM
Procedure: PrimaPure normal human dermal fibroblasts (NHDF) cells (Genlatis PH10605A) were cultured and passaged in fibroblast growth medium (Genlatis PM116500) according to the manufacturer’s protocol. NHDF cells (1 × 10^3 per well) were plated in a 384-well plate in cell culture medium. The cells were incubated with each compound of interest at 10 μM concentration for 72 h at 37°C and 5% CO2. Following treatment, CellTiter-Glo (Promega) reagent was used to assay ATP-dependent luminescence and thus provide a measure of cell viability. […] For cytotoxicity dose-response curves (Fig. 4C and Fig. 5C), compounds were titrated from 80 μM to 0.5 μM in duplicates.

[2] = system: Cryptococcus yeast (CHY3833 and CHY3836); assay: Yeast replication secondary screen (OD600); assay type: cell-based, Cryptococcus neoformans serotype D (deneoformans); details: 10 μM, 12 h at 30°C
Procedure: (ii) Yeast replication. CHY3833 and CHY3836 were each grown in YPD liquid overnight at 30°C to saturation and then resuspended in 0.5× YPD at an OD600 of 0.005. Strains were aliquoted into 384-well plates with inhibitors and grown for 12 h at 30°C at […] before OD600 readings were taken. Compounds that caused a >10% decrease in growth were considered yeast growth inhibitors.

SMILES | Cytotoxicity: Relative Cell Viability (% of Negative Control) [1] | Yeast Inhibition: % Inhibition [2]
O=C(COC(=O)c1ccc(C2Nc3ccccc3S(=O)(=O)N2)cc1)Nc1cc(F)ccc1F (stereo not shown) [compound 44117394] | 105.4 % of Negative Control | 9.7%
CC(C)=CC(=O)Nc1ccc(OCc2ccccc2)cc1 [compound 731806] | 91.1 % of Negative Control | 64.0%
O=C(CCc1ccccc1Br)N1CCC(c2cccs2)CC1 [compound 71807060] | 100.7 % of Negative Control | 5.9%
Cc1cccc2nc(CSC(=S)NCc3cccnc3)cn12 [compound 957599] | 10.0 % of Negative Control | 59.9%
O=C(Nc1cnc(Oc2ccccc2)nc1)c1cccc(Cl)c1 [compound 71799766] | 99.9 % of Negative Control | 7.9%
NS(=O)(=O)c1ccc(NC(=O)CSC2CC(=O)N(c3ccc(Br)cc3)C2=O)cc1 (stereo not shown) [compound 2974037] | 102.2 % of Negative Control | 90.7%
O=Cc1sc(=O)n(Cc2ccccc2)c1Cl [compound 820752] | 115.4 % of Negative Control | 101.8%
Cc1ccc(S(=O)(=O)Nc2cc(Sc3nc[nH]n3)c(O)c3ccccc23)c(C)c1 [compound 2133779] | 3.5 % of Negative Control | 98.3%
CC(=O)c1ccc(OCCOc2ccc(C#N)cc2)cc1 [compound 1713451] | 106.4 % of Negative Control | 41.1%
C=C(C)Cn1c(Cc2ccc(OC)cc2)nc2ccccc21 [compound 962333] | 73.9 % of Negative Control | 53.4%
Cc1ccc(OCCn2c(C)nc3ccccc32)cc1 [compound 790960] | 90.6 % of Negative Control | 81.4%
Cc1ccc(C)c(S(=O)(=O)n2cnc3ccccc32)c1 [compound 700148] | 84.1 % of Negative Control | 59.4%
Oc1ccc2cc(Br)ccc2c1 [compound 27144] | 31.7 % of Negative Control | 100.0%
COc1ccc(C2=CC(=O)C=CC2=O)cc1 [compound 121637] | 3.0 % of Negative Control | 100.9%
O=C(NCCc1ccccc1)c1n[nH]c2ccccc12 [compound 1505880] | 87.7 % of Negative Control | 77.5%
O=C(Cc1ccc(F)cc1)N1CCN(c2nc(-c3ccsc3)cs2)CC1 [compound 71811049] | 99.2 % of Negative Control | 4.0%
O=C(NCc1ccco1)c1sc2ccccc2c1Cl [compound 2049334] | 88.3 % of Negative Control | 53.3%
Cc1cc(C(=O)NCCc2nc3c(c(C(F)(F)F)n2)COCC3)c(C)o1 [compound 91629266] | 103.1 % of Negative Control | 31.5%
Cc1cc(C(=O)NCC2Cc3ccccc3CO2)c(C)o1 (stereo not shown) [compound 91626508] | 98.3 % of Negative Control | 53.9%
O=C(NC(=S)NCc1ccccc1)c1ccccc1 [compound 700976] | 97.5 % of Negative Control | 78.1%
Cc1cc(NC(=O)c2cccc(Oc3ccccc3)c2)on1 [compound 25813521] | 105.8 % of Negative Control | 19.4%
O=S(=O)(Nc1nc2c(F)cccc2s1)c1ccc(Cl)s1 [compound 16934170] | 77.5 % of Negative Control | -6.6%

SMILES | Cytotoxicity: Relative Cell Viability (% of Negative Control) [1] | Yeast Inhibition: % Inhibition [2]
COc1ccc(CCNC(=O)c2cnn3c(-c4ccc(C)c(C)c4)ccnc23)cc1OC [compound 46074589] | 105.7 % of Negative Control | -4.7%
CC(=O)c1cccc(NC(=O)c2cc(Cl)sc2Cl)c1 [compound 7120750] | 79.8 % of Negative Control | 72.7%
Cc1nc(-c2ccc(F)cc2)sc1CCNC(=O)c1ccc(Br)o1 [compound 7503016] | 97.2 % of Negative Control | 20.4%
CCOC(=O)c1ccc(NC(=O)CCc2ccc(CC)o2)cc1 [compound 652808] | 113.1 % of Negative Control | 28.0%
NNc1nc2cc3c(cc2s1)OCCO3 [compound 2771030] | 94.3 % of Negative Control | 99.1%
ClC1(Cl)CC1Cn1cnc2ccccc21 (stereo not shown) [compound 2936975] | 93.7 % of Negative Control | 49.3%
O=C(Nc1nc2ccccc2s1)C1CCCCN1S(=O)(=O)c1ccc(Cl)s1 (stereo not shown) [compound 16801811] | 86.9 % of Negative Control | 24.0%
Cc1noc(C)c1C(=O)N1CCN(c2ccc(-c3noc(C(C)C)n3)cn2)CC1 [compound 49701731] | 102.2 % of Negative Control | 1.4%
Cc1ccccc1OCCSCc1nc2ccccc2[nH]1 [compound 1589778] | 86.0 % of Negative Control | 72.5%
Nc1nc(-c2ccc(Oc3ccccc3)cc2)cs1 [compound 780598] | 97.5 % of Negative Control | 81.0%
O=S(=O)(Nc1ccc(Br)cc1F)c1cccc(Cl)c1 [compound 983861] | 101.6 % of Negative Control | 55.6%
O=S(=O)(NCCN1CCN(c2ccc(Cl)cc2)CC1)c1ccc(Cl)s1 [compound 42268033] | 102.4 % of Negative Control | 19.1%
Cc1ccc2occ(C=O)c(=O)c2c1 [compound 688709] | 91.6 % of Negative Control | 100.0%
O=C1c2ccccc2S(=O)(=O)N1CC(O)COc1ccc(Cl)cc1Cl (stereo not shown) [compound 2943193] | 90.5 % of Negative Control | 57.4%
CN(C)/C=C/c1cc(=S)c2ccccc2s1 [compound 5991625] | 72.5 % of Negative Control | 65.3%
CCSc1oc(-c2ccco2)nc1[P+](c1ccccc1)(c1ccccc1)c1ccccc1 [compound 4360162] | 41.9 % of Negative Control | 72.3%
CCn1c(SC/C=C\c2ccccc2)nnc1-c1ccncc1 [compound 18558862] | 88.2 % of Negative Control | 36.7%
Oc1ccccc1-c1cc2ccccc2[nH]1 [compound 700009] | 96.3 % of Negative Control | 82.2%
O=C(COc1ccc2ccccc2c1)NCC1COC2(CCCC2)O1 (stereo not shown) [compound 16823609] | 99.9 % of Negative Control | 2.4%
Cl.Fc1ccc(Nc2nc(-c3ccoc3)cs2)cc1F [compound 72720194] | 70.6 % of Negative Control | 29.6%
Nc1nc(-c2ccccn2)cs1 [compound 1092459] | – | 100.0%
